From PMC9081768, “Spectroscopy, Structure, Biomacromolecular Interactions, and Antiproliferation Activity of a Fe(II) Complex With DPA-Bpy as Pentadentate Ligand” (Frontiers in Chemistry, 2022)

Target: T1, human serum albumin (HSA) (Homo sapiens, UniProt P02768)
T1 construct: gene ALB
Assay: X-ray crystal structure at […] Å (seven molecules seen in the HSA Fe complex adduct)
Assay type: binding

T1 sequence (P02768 25-609): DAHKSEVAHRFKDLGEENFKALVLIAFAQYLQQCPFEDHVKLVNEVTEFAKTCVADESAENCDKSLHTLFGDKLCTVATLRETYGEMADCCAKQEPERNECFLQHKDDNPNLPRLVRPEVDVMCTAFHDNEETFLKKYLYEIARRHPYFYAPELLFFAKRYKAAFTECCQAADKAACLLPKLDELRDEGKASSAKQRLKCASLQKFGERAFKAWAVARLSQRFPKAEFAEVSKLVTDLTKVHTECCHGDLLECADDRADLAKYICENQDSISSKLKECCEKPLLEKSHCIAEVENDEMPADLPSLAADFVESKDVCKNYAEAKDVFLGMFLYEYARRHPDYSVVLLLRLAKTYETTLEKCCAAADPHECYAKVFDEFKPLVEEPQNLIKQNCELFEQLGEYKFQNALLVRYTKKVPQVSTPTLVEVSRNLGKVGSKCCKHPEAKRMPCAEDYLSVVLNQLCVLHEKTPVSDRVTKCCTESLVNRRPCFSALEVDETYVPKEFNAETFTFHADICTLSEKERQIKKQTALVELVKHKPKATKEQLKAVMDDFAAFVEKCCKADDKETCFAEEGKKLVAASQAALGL

CCCCCCCCCCCCCCCC(=O)O [PA, palmitic acid]
X-ray crystal structure at 2.4 Å (seven molecules seen in the HSA Fe complex add): seven palmitic acid (PA) molecules are present in the subdomains of I–III
